PubChem BioAssay AID1963976 (Molecular Pharmacology Branch, DTP, NCI, 2024)
Several values for one entry are separate records, joined by “and”; a condition that tells them apart may be missing. Equal values may be shown once.

Test system: 435261-313-R-J1-PDC tumor spheroid viability
Assay: Anticancer human tumor 435261-313-R-J1-PDC patient-derived colon adenocarcinoma cell line growth inhibition [PI3K]
Conditions: spheroids with HUVEC and MSC; for viability, T/C: stronger effect = lower value
Summary of the method: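 High-throughput combination screen: PI3K inhibitors crossed with targeted small molecules on complex spheroids of tumor cells, HUVEC and MSCs at 37 degrees C, 5% CO2. Top concentration was at or near clinical Cmax (otherwise 10 microM), with half-log decrements.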
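Further: spheroids exposed to compounds for 7 days.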

Question: How did the viability, T/C (compound 0.000316 µM) turn out when `CC(=O)c1c(C)c2cnc(Nc3ccc(N4CCNCC4)cn3)nc2n(C2CCCC2)c1=O` was run?
Answer: Its viability, T/C is 69.4% and 92% and 91.1%.

Question: And the viability, T/C (compound 0.001 µM)?
Answer: The viability, T/C was 92.5% and 97.7% and 88.2%.

Question: What about the viability, T/C (compound 0.00316 µM) of the same compound?
Answer: Its viability, T/C is 86.3% and 105% and 87%.

Question: And the viability, T/C (compound 0.01 µM)?
Answer: Its viability, T/C is 105% and 93.1% and 75.4%.

Question: And the viability, T/C (compound 0.0316 µM)?
Answer: The viability, T/C was 99.9% and 90.4% and 103%.

Question: What about the viability, T/C (compound 0.1 µM) of the same compound?
Answer: The viability, T/C was 68.8% and 77.6% and 68.9%.

Question: What about the IC50 (curve of compound) of the same compound?
Answer: The IC50 was greater than 100 nM.

Question: How did the IC50 (curve of first compound, second compound 0.0316 µM) turn out when `CC1(C)CCC(Nc2ncc(C(F)(F)F)c(-c3c[nH]c4c(P(C)(C)=O)c(C#N)ccc34)n2)CN1` (centres undefined) + CC(Nc1ncnc2nc[nH]c12)c1cc2cccc(Cl)c2c(=O)n1-c1ccccc1 was run?
Answer: The IC50 was 2550 nM.

Question: What about the IC50 (curve of first compound, second compound 0.1 µM) of the same compound?
Answer: Its IC50 is 1920 nM.

Question: What about the IC50 (curve of first compound, second compound 0.316 µM) of the same compound?
Answer: Its IC50 is 1470 nM.

Question: What about the IC50 (curve of first compound, second compound 1 µM) of the same compound?
Answer: The IC50 was 1550 nM.

Question: And the IC50 (curve of first compound, second compound 3.16 µM)?
Answer: Its IC50 is less than 31.6 nM.

Question: And the IC50 (curve of first compound, second compound 10 µM)?
Answer: Its IC50 is less than 31.6 nM.

Question: And the viability, T/C (second compound 0.0316 µM, first compound 0.0316 µM)?
Answer: The viability, T/C was 61.1%.

Question: What about the viability, T/C (second compound 0.0316 µM, first compound 0.1 µM) of the same compound?
Answer: Its viability, T/C is 52.4%.

Question: And the viability, T/C (second compound 0.0316 µM, first compound 0.316 µM)?
Answer: The viability, T/C was 61.4%.

Question: What about the viability, T/C (second compound 0.0316 µM, first compound 1 µM) of the same compound?
Answer: Its viability, T/C is 61.4%.

Question: And the viability, T/C (second compound 0.0316 µM, first compound 3.16 µM)?
Answer: The viability, T/C was 48%.

Question: What about the viability, T/C (second compound 0.0316 µM, first compound 10 µM) of the same compound?
Answer: Its viability, T/C is 1.46%.

Question: And the viability, T/C (second compound 0.1 µM, first compound 0.0316 µM)?
Answer: The viability, T/C was 70.5%.

Question: What about the viability, T/C (second compound 0.1 µM, first compound 0.1 µM) of the same compound?
Answer: The viability, T/C was 60.4%.

Question: And the viability, T/C (second compound 0.1 µM, first compound 0.316 µM)?
Answer: The viability, T/C was 53.4%.

Question: What about the viability, T/C (second compound 0.1 µM, first compound 1 µM) of the same compound?
Answer: Its viability, T/C is 60.6%.

Question: What about the viability, T/C (second compound 0.1 µM, first compound 3.16 µM) of the same compound?
Answer: The viability, T/C was 44.4%.

Question: And the viability, T/C (second compound 0.1 µM, first compound 10 µM)?
Answer: The viability, T/C was 2.25%.

Question: And the viability, T/C (second compound 0.316 µM, first compound 0.0316 µM)?
Answer: The viability, T/C was 56.9%.

Question: What about the viability, T/C (second compound 0.316 µM, first compound 0.1 µM) of the same compound?
Answer: Its viability, T/C is 57.8%.

Question: And the viability, T/C (second compound 0.316 µM, first compound 0.316 µM)?
Answer: The viability, T/C was 58.2%.

Question: And the viability, T/C (second compound 0.316 µM, first compound 1 µM)?
Answer: The viability, T/C was 50.9%.

Question: What about the viability, T/C (second compound 0.316 µM, first compound 3.16 µM) of the same compound?
Answer: The viability, T/C was 43.5%.

Question: And the viability, T/C (second compound 0.316 µM, first compound 10 µM)?
Answer: The viability, T/C was 0.98%.

Question: And the viability, T/C (second compound 1 µM, first compound 0.0316 µM)?
Answer: Its viability, T/C is 50.5%.

Question: And the viability, T/C (second compound 1 µM, first compound 0.1 µM)?
Answer: Its viability, T/C is 52.1%.

Question: And the viability, T/C (second compound 1 µM, first compound 0.316 µM)?
Answer: The viability, T/C was 57.2%.

Question: What about the viability, T/C (second compound 1 µM, first compound 1 µM) of the same compound?
Answer: The viability, T/C was 57%.

Question: What about the viability, T/C (second compound 1 µM, first compound 3.16 µM) of the same compound?
Answer: Its viability, T/C is 44.3%.

Question: And the viability, T/C (second compound 1 µM, first compound 10 µM)?
Answer: Its viability, T/C is 1.03%.

Question: And the viability, T/C (second compound 3.16 µM, first compound 0.0316 µM)?
Answer: Its viability, T/C is 37.3%.

Question: What about the viability, T/C (second compound 3.16 µM, first compound 0.1 µM) of the same compound?
Answer: The viability, T/C was 42.8%.

Question: What about the viability, T/C (second compound 3.16 µM, first compound 0.316 µM) of the same compound?
Answer: The viability, T/C was 44%.

Question: What about the viability, T/C (second compound 3.16 µM, first compound 1 µM) of the same compound?
Answer: The viability, T/C was 47.8%.

Question: What about the viability, T/C (second compound 3.16 µM, first compound 3.16 µM) of the same compound?
Answer: The viability, T/C was 36.9%.

Question: And the viability, T/C (second compound 3.16 µM, first compound 10 µM)?
Answer: The viability, T/C was 0.77%.

Question: And the viability, T/C (second compound 10 µM, first compound 0.0316 µM)?
Answer: The viability, T/C was 33.6%.

Question: And the viability, T/C (second compound 10 µM, first compound 0.1 µM)?
Answer: Its viability, T/C is 27.4%.

Question: And the viability, T/C (second compound 10 µM, first compound 0.316 µM)?
Answer: The viability, T/C was 27.7%.

Question: And the viability, T/C (second compound 10 µM, first compound 1 µM)?
Answer: The viability, T/C was 31.1%.

Question: And the viability, T/C (second compound 10 µM, first compound 3.16 µM)?
Answer: The viability, T/C was 22.3%.

Question: And the viability, T/C (second compound 10 µM, first compound 10 µM)?
Answer: Its viability, T/C is 1.14%.
